Values of other authors as cited in patent publication US20150320677A1, “EFFERVESCENT TABLET FORMULATIONS OF DAPOXETINE AND A PDE5 INHIBITOR” (Sanovel Ilac Sanayi Ve Ticaret Anonim Sirketi, priority 2012, published 2015).

Experiments:
[1] = following oral administration
[2] = in vivo, po

Row | Compound | onset of action takes (second sentence of b41) [1] | binding to plasma proteins [2]
1 | CN1CC(=O)N2[C@H](c3ccc4c(c3)OCO4)c3[nH]c4ccccc4c3C[C@@H]2C1=O [tadalafil, (6R-trans)-6-(1,3-benzodioxol-5-yl)-2,3,6,7,12,12a-hexahydro-2-methyl-pyrazino[1′,2′:1,6]pyrido[3,4-b]indole-1,4-dione] | up to 36 hours | –
2 | Dapoxetine | – | almost completely binding to plasma proteins
